Assay [1] concerns Erk1/2 phosphorylation in HEK293 cells expressing AT1R. To be noted: AngII, 5 and 15 minute timepoints.
Description: Cell Culture, Transfections, and Stimulation Assays HEK293 cells were cultured in Dulbecco's modified Eagle's medium with 10% fetal bovine serum, 10 units/ml penicillin, and 100 μg/ml streptomycin. Transient transfection of the HEK293 cells was carried out using FuGene reagent per manufacturer's protocols in 6 well plates (Roche). […] For ERK phosphorylation, transfected HEK293 cells were serum starved for 3 hours and incubated with the agonist for designated times at 37 C. Cells were immediately lysed.
Another assay has as its system ApoE-KO mice. Briefly: Atherosclerotic lesion analysis in ApoE-KO mice. As to conditions: for reduction of total lesion burden: co-infusion of Apelin 2 mg/kg/day with AngII 1.4 mg/kg/day. The format is in vivo, mouse. How it is done: Animals. Mice were maintained in temperature-controlled (20° C. to 22° C.) environment with a 12-hour light-dark cycle. […] All mice were C57BL/6J ApoE-KO male mice (Jackson Laboratories, Bar Harbor, […].) between the ages of 8-12 weeks. […] Animal procedures were carried out in accordance with the Institutional Review Board Guidelines at Stanford University.
Tissue preparation, histology and lesion quantification. Mice were euthanized 28 days following implantation of osmotic mini-pumps. The thoracic cage was removed and the animal perfused with phosphate buffered saline solution (PBS) for 2 minutes. The entire aorta and vein graft were exposed and the periadventitial tissue and scar tissue dissected and removed. Subsequently mice were perfusion fixed in situ with 4% phosphate-buffered paraformaldehyde. In some animals aorta and lung were removed fresh for biochemical assays.
Atherosclerotic Lesion Analysis Atherosclerosis lesion area was determined as described previously. Briefly, the arterial tree was perfused with PBS (pH 7.3) and then perfusion fixed with phosphate-buffered paraformaldehyde (3%, pH 7.3). The heart and full length of the aorta-to-iliac bifurcation was exposed and dissected carefully from any surrounding tissues. Aortas were then opened along the ventral midline and dissected free of the animal and pinned out flat, intimal side up, onto black wax. Aortic images were captured with a digital camera (DMC1) mounted on a Leica MZ6 stereomicroscope and analyzed using Fovea Pro (Reindeer Graphics, Asheville, N.C.). Percent lesion area was calculated as total lesion area divided by total surface area.

Regarding apelin, the “phosphorylation of Erk1/2” value in assay [1] is “dramatically reduced”. Further, in the assay with ApoE-KO mice (apelin 2 mg/kg/day, 4 weeks), the “reduction in aortic root atherosclerotic burden vs saline treated controls (trend)” value was 25%. Also, the “reduction of total lesion burden” value is “mitigated” in the assay with ApoE-KO mice (4 weeks) and 75% in the assay with ApoE-KO mice (4 weeks, listed as Apelin). Further, in the assay on ApoE-KO mice (osmotic minipump during high fat diet exposure), the “progression of atherosclerosis in aortic root (FIG. 17)” value was “do not alter”.
